# Laboratory results published in patent publication US20080171355A1, “DEVICE FOR TESTING THE EFFECTIVENESS OF DISINFECTANTS ON PROTOZOAN PARASITES” (priority 2006, published 2008).
# Tested on: Oocysts of Eimeria acervulina
# Type: cell-based
structure (smiles),measurement,value
CC(=O)OO [Peracetic Acid],Sporulation Rate (%),65.9%
